Source: ChEMBL document CHEMBL2429834, “Potent histone deacetylase inhibitors derived from 4-(aminomethyl)-N-hydroxybenzamide with high selectivity for the HDAC6 isoform” (J Med Chem, 2013)

Experiments:
Histone deacetylase 8 = target: T1, Histone deacetylase 8 (Homo sapiens, UniProt Q9BY41); test: Inhibition of full length C-terminal His6x-tagged recombinant human HDAC8 expressed in baculovirus using Arg-His-Lys(Ac)-Lys(Ac) as substrate after 1 hr by fluorescence plate reader analysis
T1 sequence (Q9BY41 whole entry): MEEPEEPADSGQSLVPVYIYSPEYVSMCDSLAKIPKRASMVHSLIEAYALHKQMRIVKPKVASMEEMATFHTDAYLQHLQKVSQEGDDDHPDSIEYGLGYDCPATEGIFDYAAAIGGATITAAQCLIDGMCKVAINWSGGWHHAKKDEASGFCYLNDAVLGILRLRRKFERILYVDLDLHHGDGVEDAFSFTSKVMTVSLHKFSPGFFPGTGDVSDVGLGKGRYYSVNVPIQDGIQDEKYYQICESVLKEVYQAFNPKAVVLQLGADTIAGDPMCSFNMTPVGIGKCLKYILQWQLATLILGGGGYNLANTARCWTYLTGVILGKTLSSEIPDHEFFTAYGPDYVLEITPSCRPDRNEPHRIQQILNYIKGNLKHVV

Histone deacetylase 2 = Histone deacetylase 2 (Homo sapiens, UniProt Q92769); test: Inhibition of full length C-terminal His6x-tagged recombinant human HDAC2 expressed in baculovirus using Arg-His-Lys-Lys (Ac) as substrate after 2 hrs by fluorescence plate reader analysis
Histone deacetylase 2, sequence (Q92769 whole entry): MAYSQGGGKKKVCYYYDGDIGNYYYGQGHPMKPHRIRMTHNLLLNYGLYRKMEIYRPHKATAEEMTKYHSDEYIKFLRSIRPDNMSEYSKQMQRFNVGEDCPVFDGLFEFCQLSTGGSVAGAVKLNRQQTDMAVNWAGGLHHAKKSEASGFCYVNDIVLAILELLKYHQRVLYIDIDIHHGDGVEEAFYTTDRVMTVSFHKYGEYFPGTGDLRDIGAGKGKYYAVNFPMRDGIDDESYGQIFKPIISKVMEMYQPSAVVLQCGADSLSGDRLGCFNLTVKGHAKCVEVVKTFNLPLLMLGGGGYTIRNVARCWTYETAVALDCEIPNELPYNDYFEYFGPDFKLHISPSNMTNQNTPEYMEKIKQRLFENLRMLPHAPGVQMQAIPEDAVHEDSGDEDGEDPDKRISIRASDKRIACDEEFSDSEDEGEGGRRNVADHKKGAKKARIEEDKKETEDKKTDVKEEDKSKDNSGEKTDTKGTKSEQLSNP

[1] = target: T2, Protein deacetylase HDAC6 (Homo sapiens, UniProt Q9UBN7); test: Inhibition of HDAC6 in human HeLa cells using acetyl tubulin as substrate assessed as Ac-tubulin accumulation in cytosol after 6 hrs by immunofluorescence assay
T2 sequence (Q9UBN7 whole entry): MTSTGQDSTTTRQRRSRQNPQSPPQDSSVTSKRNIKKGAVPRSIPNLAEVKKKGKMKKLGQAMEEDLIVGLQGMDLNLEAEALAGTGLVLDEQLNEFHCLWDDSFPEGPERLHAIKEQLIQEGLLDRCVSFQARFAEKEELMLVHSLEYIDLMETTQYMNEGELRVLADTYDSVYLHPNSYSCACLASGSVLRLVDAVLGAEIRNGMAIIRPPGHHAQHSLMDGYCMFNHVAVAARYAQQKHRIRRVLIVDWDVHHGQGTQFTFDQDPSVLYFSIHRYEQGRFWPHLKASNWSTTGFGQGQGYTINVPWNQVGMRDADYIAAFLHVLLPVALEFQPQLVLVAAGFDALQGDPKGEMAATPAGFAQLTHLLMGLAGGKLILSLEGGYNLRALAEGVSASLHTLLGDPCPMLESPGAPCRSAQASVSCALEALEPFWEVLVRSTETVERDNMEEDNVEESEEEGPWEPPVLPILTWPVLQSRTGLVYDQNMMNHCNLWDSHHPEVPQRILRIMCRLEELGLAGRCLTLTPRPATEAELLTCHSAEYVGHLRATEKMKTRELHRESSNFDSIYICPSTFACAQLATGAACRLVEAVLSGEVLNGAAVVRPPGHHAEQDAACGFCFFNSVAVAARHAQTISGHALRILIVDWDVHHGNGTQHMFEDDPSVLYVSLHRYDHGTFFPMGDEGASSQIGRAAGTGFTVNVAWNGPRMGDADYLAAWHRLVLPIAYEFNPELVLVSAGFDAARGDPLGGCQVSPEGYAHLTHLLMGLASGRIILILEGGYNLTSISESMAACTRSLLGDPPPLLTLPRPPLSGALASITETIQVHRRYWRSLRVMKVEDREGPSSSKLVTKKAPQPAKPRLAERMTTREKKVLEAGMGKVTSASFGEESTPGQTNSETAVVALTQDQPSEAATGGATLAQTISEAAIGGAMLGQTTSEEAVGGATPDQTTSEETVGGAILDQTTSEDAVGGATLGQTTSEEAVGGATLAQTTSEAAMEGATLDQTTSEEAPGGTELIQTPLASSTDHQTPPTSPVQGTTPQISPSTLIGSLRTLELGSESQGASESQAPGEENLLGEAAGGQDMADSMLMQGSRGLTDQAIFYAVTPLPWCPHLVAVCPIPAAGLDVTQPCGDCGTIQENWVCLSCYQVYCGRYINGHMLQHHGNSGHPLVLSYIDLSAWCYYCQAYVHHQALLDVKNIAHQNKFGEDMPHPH

Histone deacetylase 7 = target: T3, Histone deacetylase 7 (Homo sapiens, UniProt Q8WUI4); test: Inhibition of N-terminal GST-tagged recombinant human HDAC7 (518) expressed in baculovirus using acetyl-Lys(trifluoroacetyl)-AMC as substrate after 1 hr by fluorescence plate reader analysis
T3 sequence (Q8WUI4 whole entry): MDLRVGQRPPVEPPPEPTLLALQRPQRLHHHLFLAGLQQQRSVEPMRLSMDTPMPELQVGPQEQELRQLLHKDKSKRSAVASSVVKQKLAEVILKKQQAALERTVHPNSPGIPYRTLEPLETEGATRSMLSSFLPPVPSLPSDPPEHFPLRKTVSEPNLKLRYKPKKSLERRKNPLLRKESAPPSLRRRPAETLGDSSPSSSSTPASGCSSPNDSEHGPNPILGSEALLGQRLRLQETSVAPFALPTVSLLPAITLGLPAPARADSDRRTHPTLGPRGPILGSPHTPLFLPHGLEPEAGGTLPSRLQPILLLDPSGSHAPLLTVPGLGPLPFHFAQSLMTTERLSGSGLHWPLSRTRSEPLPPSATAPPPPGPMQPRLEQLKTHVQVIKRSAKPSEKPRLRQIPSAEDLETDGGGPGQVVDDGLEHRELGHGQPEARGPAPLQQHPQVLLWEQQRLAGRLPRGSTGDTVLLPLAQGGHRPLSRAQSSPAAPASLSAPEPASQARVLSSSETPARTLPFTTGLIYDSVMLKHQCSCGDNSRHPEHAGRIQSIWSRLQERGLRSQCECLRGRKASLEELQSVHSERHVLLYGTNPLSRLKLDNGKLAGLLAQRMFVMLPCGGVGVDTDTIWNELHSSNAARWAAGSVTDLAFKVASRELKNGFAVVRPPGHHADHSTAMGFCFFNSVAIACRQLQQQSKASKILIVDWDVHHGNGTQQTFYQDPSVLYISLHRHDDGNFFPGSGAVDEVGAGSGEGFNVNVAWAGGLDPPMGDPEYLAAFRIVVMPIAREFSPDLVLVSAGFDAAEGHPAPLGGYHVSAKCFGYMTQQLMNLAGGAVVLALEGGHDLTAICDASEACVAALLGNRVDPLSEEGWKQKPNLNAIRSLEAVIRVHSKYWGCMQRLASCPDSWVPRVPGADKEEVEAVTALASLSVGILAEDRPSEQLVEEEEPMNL

Histone deacetylase 5 = Histone deacetylase 5 (Homo sapiens, UniProt Q9UQL6); test: Inhibition of C-terminal His6x-tagged recombinant human HDAC5 (657 to 1123) expressed in baculovirus using acetyl-Lys(trifluoroacetyl)-AMC as substrate after 1 hr by fluorescence plate reader analysis
Histone deacetylase 5, sequence (Q9UQL6 whole entry): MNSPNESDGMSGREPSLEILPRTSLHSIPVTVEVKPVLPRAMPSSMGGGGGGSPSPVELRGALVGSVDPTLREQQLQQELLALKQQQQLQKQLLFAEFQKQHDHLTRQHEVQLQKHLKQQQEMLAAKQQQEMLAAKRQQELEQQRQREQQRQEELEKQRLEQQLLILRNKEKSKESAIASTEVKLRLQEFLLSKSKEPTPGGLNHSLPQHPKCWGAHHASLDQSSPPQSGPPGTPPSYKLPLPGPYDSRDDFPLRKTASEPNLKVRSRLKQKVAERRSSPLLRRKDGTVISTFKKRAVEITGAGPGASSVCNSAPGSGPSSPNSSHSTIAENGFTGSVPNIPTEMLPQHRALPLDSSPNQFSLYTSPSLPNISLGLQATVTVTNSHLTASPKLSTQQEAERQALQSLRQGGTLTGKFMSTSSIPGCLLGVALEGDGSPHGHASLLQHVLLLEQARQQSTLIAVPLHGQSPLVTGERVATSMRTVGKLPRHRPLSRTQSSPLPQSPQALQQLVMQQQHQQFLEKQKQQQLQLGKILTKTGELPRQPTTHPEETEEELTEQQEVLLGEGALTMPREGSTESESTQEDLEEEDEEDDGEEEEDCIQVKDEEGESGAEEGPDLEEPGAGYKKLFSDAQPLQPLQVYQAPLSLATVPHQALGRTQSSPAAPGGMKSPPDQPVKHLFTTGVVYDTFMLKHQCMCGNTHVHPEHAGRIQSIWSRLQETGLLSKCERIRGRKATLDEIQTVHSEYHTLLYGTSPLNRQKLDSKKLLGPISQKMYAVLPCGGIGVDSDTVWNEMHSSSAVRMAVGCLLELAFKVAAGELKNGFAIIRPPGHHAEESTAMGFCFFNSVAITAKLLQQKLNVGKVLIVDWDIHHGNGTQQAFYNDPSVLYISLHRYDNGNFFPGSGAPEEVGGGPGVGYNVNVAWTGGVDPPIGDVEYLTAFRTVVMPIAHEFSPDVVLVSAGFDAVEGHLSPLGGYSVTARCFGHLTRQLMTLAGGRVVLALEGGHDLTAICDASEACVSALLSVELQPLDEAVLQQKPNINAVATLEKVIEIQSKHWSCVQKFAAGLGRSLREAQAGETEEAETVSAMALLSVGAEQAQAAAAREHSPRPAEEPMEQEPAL

[2] = Kinetic solubility of the compound in potassium phosphate buffer at pH 6.8 by turbidometric analysis; format: physicochemical; conditions: read-out: Kinetic_solubility

| Structure (SMILES) | IC50 (Histone deacetylase 8) [nM] | IC50 (Histone deacetylase 2) [nM] | IC50 [1] [nM] | IC50 (Histone deacetylase 7) [nM] | IC50 (Histone deacetylase 5) [nM] | solubility kinetic [2] [µM] |
| --- | --- | --- | --- | --- | --- | --- |
| Cn1cccc1C(=O)N1Cc2ccc(C(=O)NO)cc2C1 | 1300 | > 50000 | 340 | > 50000 | > 50000 | > 200 |
| Cn1cccc1C(=O)NCc1ccc(C(=O)NO)cc1 | 690 | 16000 | 460 | 4600 | 3300 | > 200 |
| Cn1cccc1C(=O)N1CCCc2cc(C(=O)NO)ccc2C1 | 890 | > 50000 | 1480 | > 50000 | > 50000 | > 200 |
| CC(C)(C)C(=O)N1CCc2cc(C(=O)NO)ccc2C1 | 2100 | > 50000 | 430 | > 50000 | > 50000 | > 200 |
| CC(C)(C)C(=O)N1Cc2ccc(C(=O)NO)cc2C1 | 1300 | > 50000 | 560 | > 50000 | > 50000 | > 200 |
| Cn1cccc1C(=O)N1CCc2cc(C(=O)NO)ccc2C1 | 2100 | > 50000 | 210 | > 50000 | > 50000 | > 200 |
